Bounds are passed on as bounds.

For one assay, the system named is HIV-1 (IIIB). Nature of the assay: Antiviral (HIV) assay in MT-4 cells. Type of assay: cell-based. The conditions noted are these: HIV-1 IIIB in MT-4 cells, 5 days incubation, Cell Titer Glo; average of at least two independent experiments; read-out: MT4 HIV EC50. As to the method: Example 104: Antiviral (HIV) Assay in MT-4 Cells
Compounds were tested in a high-throughput 384-well assay format for their ability to inhibit the replication of HIV-1 (IIIB) in MT-4 cells. Compounds were serially diluted (1:3) in DMSO on 384-well polypropylene plates and further diluted 200-fold into complete RPMI media (10% FBS, 1% P/S) using the Biotek Micro Flow and Labcyte ECHO acoustic dispenser. Each plate contained up to 8 test compounds, with negative (no drug) and positive (5 μM AZT) controls. MT-4 cells were pre-treated with 10 μL of either RPMI (mock-infected) or a fresh 1:250 dilution of HIV-1 IIIB concentrated virus stock. Infected and uninfected MT-4 cells were further diluted in complete RPMI media and added to each plate using a Micro Flow dispenser. After 5 days incubation in a humidified and temperature-controlled incubator (37° C.), Cell Titer Glo (Promega) was added to the assay plates and chemiluminescence read using an Envision plate-reader. EC50 values were defined as the compound concentration that causes a 50% decrease in luminescence signal and were calculated using a sigmoidal dose-response model to generate curve fits and are shown in Table 1.
A word on the EC50: it is the concentration needed to bring the measured effect to its halfway point. As for `CCC(CC)COC(=O)C(C)(C)N[P@](=O)(CO[C@H](C)Cn1cnc2c(N)ncnc21)NC1(C(=O)OCC(CC)CC)CC1` [Example 71, 2-Ethylbutyl 1-(((R)-((((R)-1-(6-amino-9H-purin-9-yl)propan-2-yl)oxy)methyl)((1-(2-ethylbutoxy)-2-methyl-1-oxopropan-2-l)amino)phosphoryl)amino)cyclopropane-1-carboxylate], the EC50 amounted to 233 nM.

The same assay, now with this note: Human immunodeficiency virus 1, MT4, 120 h; HIV-1 IIIB in MT-4 cells, 5 days incubation, Cell Titer Glo; average of at least two independent experiments.
In turn, `C[C@H](Cn1cnc2c(N)ncnc21)OCP(=O)(NC(C)(C)C(=O)OCC1CCC2(CCC2)CC1)NC(C)(C)C(=O)OCC1CCC2(CCC2)CC1` (stereo partly drawn) [Example 53, Bis(spiro[3.5]nonan-7-ylmethyl) 2,2′-(((((1-(6-amino-9H-purin-9-yl)propan-2-yl)oxy)methyl)phosphoryl)bis(azanediyl))(R)-bis(2-methylpropanoate)] yielded an EC50 of 6 nM.
Turning to `CCC(C)(C)CCOC(=O)C(C)(C)NP(=O)(CO[C@H](C)Cn1cnc2c(N)ncnc21)NC(C)(C)C(=O)OCCC(C)(C)CC` [Example 54, Bis(3,3-dimethylpentyl) 2,2′-(((((1-(6-amino-9H-purin-9-yl)propan-2-yl)oxy)methyl)phosphoryl)bis(azanediyl))(R)-bis(2-methylpropanoate)], a half-maximal effect (EC50) was put at 4 nM.
Still for that read-out and setting: then `C[C@H](Cn1cnc2c(N)ncnc21)OCP(=O)(NC(C)(C)C(=O)O[C@H](C)C1CCCCC1)NC(C)(C)C(=O)O[C@H](C)C1CCCCC1` [Example 55, Bis((R)-1-cyclohexylethyl) 2,2′-((((((R)-1-(6-amino-9H-purin-9-yl)propan-2-yl)oxy)methyl)phosphoryl)bis(azanediyl))bis(2-methylpropanoate)], with 101 nM; and `C[C@H](Cn1cnc2c(N)ncnc21)OCP(=O)(NC(C)(C)C(=O)O[C@@H](C)C1CCCCC1)NC(C)(C)C(=O)O[C@@H](C)C1CCCCC1` [Example 56, Bis((S)-1-cyclohexylethyl) 2,2′-((((((R)-1-(6-amino-9H-purin-9-yl)propan-2-yl)oxy)methyl)phosphoryl)bis(azanediyl))bis(2-methylpropanoate)], with 177 nM; and `C[C@H](Cn1cnc2c(N)ncnc21)OCP(=O)(NC(C)(C)C(=O)OCC1CC2(C1)CC1(CCC1)C2)NC(C)(C)C(=O)OCC1CC2(C1)CC1(CCC1)C2` [Example 57, Bis(dispiro[3.1.3^6.1^4]decan-2-ylmethyl) 2,2′-(((((1-(6-amino-9H-purin-9-yl)propan-2-yl)oxy)methyl)phosphoryl)bis(azanediyl))(R)-bis(2-methylpropanoate)], with 23 nM.
On to `C[C@H](Cn1cnc2c(N)ncnc21)OCP(=O)(NC(C)(C)C(=O)OCC1CC2(C1)CC(F)(F)C2)NC(C)(C)C(=O)OCC1CC2(C1)CC(F)(F)C2` [Example 58, Bis((6,6-difluorospiro[3.3]heptan-2-yl)methyl) 2,2′-(((((1-(6-amino-9H-purin-9-yl)propan-2-yl)oxy)methyl)phosphoryl)bis(azanediyl))(R)-bis(2-methylpropanoate)], for which a half-maximal response (EC50) required 5 nM.
In turn, `C[C@H](Cn1cnc2c(N)ncnc21)OCP(=O)(NC(C)(C)C(=O)OCC12CC3CC(CC(C3)C1)C2)NC(C)(C)C(=O)OCC12CC3CC(CC(C3)C1)C2` [Example 59, Bis(((1S,3S)-adamantan-1-yl)methyl) 2,2′-((((((R)-1-(6-amino-9H-purin-9-yl)propan-2-yl)oxy)methyl)phosphoryl)bis(azanediyl))bis(2-methylpropanoate)] gave a concentration for a half-maximal effect (EC50) of 47 nM.
On to `C[C@H](Cn1cnc2c(N)ncnc21)OCP(=O)(NC(C)(C)C(=O)O[C@@H]1C[C@@H]2C[C@@H]2C1)NC(C)(C)C(=O)O[C@@H]1C[C@@H]2C[C@@H]2C1` [Example 60, Di((1R,3R,5S)-bicyclo[3.1.0]hexan-3-yl) 2,2′-((((((R)-1-(6-amino-9H-purin-9-yl)propan-2-yl)oxy)methyl)phosphoryl)bis(azanediyl))bis(2-methylpropanoate)], for which it took 3 nM to reach a half-maximal effect (EC50).
The molecule `C[C@H](Cn1cnc2c(N)ncnc21)OCP(=O)(NC(C)(C)C(=O)OC1CCC2(CCCC2)CC1)NC(C)(C)C(=O)OC1CCC2(CCCC2)CC1` (stereo partly drawn) [Example 61, Di(spiro[4.5]decan-8-yl) 2,2′-(((((1-(6-amino-9H-purin-9-yl)propan-2-yl)oxy)methyl)phosphoryl)bis(azanediyl))(R)-bis(2-methylpropanoate)] gave an EC50 of 28 nM.
Take `C[C@H](Cn1cnc2c(N)ncnc21)OCP(=O)(NC(C)(C)C(=O)OCCC12CC(C1)C2)NC(C)(C)C(=O)OCCC12CC(C1)C2` [Example 62, Bis(2-(bicyclo[1.1.1]pentan-1-yl)ethyl) 2,2′-(((((1-(6-amino-9H-purin-9-yl)propan-2-yl)oxy)methyl)phosphoryl)bis(azanediyl))(R)-bis(2-methylpropanoate)]: the EC50 amounted to 7 nM.
Regarding `C[C@H](Cn1cnc2c(N)ncnc21)OCP(=O)(NC(C)(C)C(=O)OC1CCC2(CCC2)CC1)NC(C)(C)C(=O)OC1CCC2(CCC2)CC1` (stereo partly drawn) [Example 63, Di(spiro[3.5]nonan-7-yl) 2,2′-(((((1-(6-amino-9H-purin-9-yl)propan-2-yl)oxy)methyl)phosphoryl)bis(azanediyl))(R)-bis(2-methylpropanoate)], the EC50 is 7 nM.
The same measure, in the same setting: for `CCCCCCOC(=O)C(NP(=O)(CO[C@H](C)Cn1cnc2c(N)ncnc21)NC(C(=O)OCCCCCC)(C1CC1)C1CC1)(C1CC1)C1CC1` [Example 64, Dihexyl 2,2′-(((((1-(6-amino-9H-purin-9-yl)propan-2-yl)oxy)methyl)phosphoryl)bis(azanediyl))(R)-bis(2,2-dicyclopropylacetate)] the value was over 500 nM; for `CCCCCCOC(=O)C(CC)(CC)NP(=O)(CO[C@H](C)Cn1cnc2c(N)ncnc21)NC(CC)(CC)C(=O)OCCCCCC` [Example 65, Dihexyl 2,2′-(((((1-(6-amino-9H-purin-9-yl)propan-2-yl)oxy)methyl)phosphoryl)bis(azanediyl))(R)-bis(2-ethylbutanoate)], over 500 nM; for `CCCCCCCOC(=O)C(C)(C)NP(=O)(CO[C@H](C)Cn1cnc2c(N)ncnc21)NC(C)(C)C(=O)OCCCCCCC` [Example 66, Diheptyl 2,2′-(((((1-(6-amino-9H-purin-9-yl)propan-2-yl)oxy)methyl)phosphoryl)bis(azanediyl))(R)-bis(2-methylpropanoate)], 9 nM.
On the same count and under the same terms, for `CC(C)CCCCOC(=O)C(C)(C)NP(=O)(CO[C@H](C)Cn1cnc2c(N)ncnc21)NC(C)(C)C(=O)OCCCCC(C)C` [Example 68, Bis(5-methylhexyl) 2,2′-(((((1-(6-amino-9H-purin-9-yl)propan-2-yl)oxy)methyl)phosphoryl)bis(azanediyl))(R)-bis(2-methylpropanoate)] the value was 9 nM; for `CCCC(CCC)COC(=O)C(C)(C)NP(=O)(CO[C@H](C)Cn1cnc2c(N)ncnc21)NC(C)(C)C(=O)OCC(CCC)CCC` [Example 69, Bis(2-propylpentyl) 2,2′-(((((1-(6-amino-9H-purin-9-yl)propan-2-yl)oxy)methyl)phosphoryl)bis(azanediyl))(R)-bis(2-methylpropanoate)], 24 nM; for `CCC(CC)COC(=O)C1(NP(=O)(CO[C@H](C)Cn2cnc3c(N)ncnc32)NC2(C(=O)OCC(CC)CC)CC2)CC1` [Example 70, Bis(2-ethylbutyl) 1,1′-(((((1-(6-amino-9H-purin-9-yl)propan-2-yl)oxy)methyl)phosphoryl)bis(azanediyl))(R)-bis(cyclopropane-1-carboxylate)], over 500 nM.
The molecule `CCC(CC)COC(=O)C(C)(C)N[P@@](=O)(CO[C@H](C)Cn1cnc2c(N)ncnc21)NC1(C(=O)OCC(CC)CC)CC1` [Example 72, 2-Ethylbutyl 1-(((S)-((((R)-1-(6-amino-9H-purin-9-yl)propan-2-yl)oxy)methyl)((1-(2-ethylbutoxy)-2-methyl-1-oxopropan-2-yl)amino)phosphoryl)amino)cyclopropane-1-carboxylate] had an EC50 of 16 nM.
Take `CCCCCCOC(=O)C(C)(C)NP(=O)(CO[C@H](C)Cn1cnc2c(N)ncnc21)NC(C)(C)C(=O)OCC12CC(C1)C2` (stereo partly drawn) [Example 77, Bicyclo[1.1.1]pentan-1-ylmethyl 2-((((((R)-1-(6-amino-9H-purin-9-yl)propan-2-yl)oxy)methyl)((1-(hexyloxy)-2-methyl-1-oxopropan-2-yl)amino)phosphoryl)amino)-2-methylpropanoate]: the EC50 was over 500 nM.
`CCCCCCOC(=O)C(C)(C)NP(=O)(CO[C@H](C)Cn1cnc2c(N)ncnc21)NC(C)(C)C(=O)OCC1(F)CC1` (stereo partly drawn) [Example 78, (1-Fluorocyclopropyl)methyl 2-((((((R)-1-(6-amino-9H-purin-9-yl)propan-2-yl)oxy)methyl)((1-(hexyloxy)-2-methyl-1-oxopropan-2-yl)amino)phosphoryl)amino)-2-methylpropanoate] showed an EC50 of over 500 nM.
Molecule `CCCCCCOC(=O)C(C)(C)NP(=O)(CO[C@H](C)Cn1cnc2c(N)ncnc21)NC(C)(C)C(=O)OCC(C)(C)OC` (stereo partly drawn) [Example 79, Hexyl 2-((((((R)-1-(6-amino-9H-purin-9-yl)propan-2-yl)oxy)methyl)((1-(2-methoxy-2-methylpropoxy)-2-methyl-1-oxopropan-2-yl)amino)phosphoryl)amino)-2-methylpropanoate] showed an EC50 of 271 nM.

Values taken from patent US12110305B2, “Prodrugs of phosphonamide nucleotide analogues and their pharmaceutical use” (priority 2020, dated 2024).
